Legend:
IMP-1 = IMP-1 (Serratia marcescens, UniProt P52699); assay: Enzyme activity: determination of IC50, fluorescence assay with CCF2-FA substrate; format: biochemical; details: enzyme 2 pM, CCF2-FA 1.25 μM, 2 hours at 25° C.; read-out: IMP1 IC50
Method: (§1) Enzyme Activity: Determination of IC50
(§2) The Class B enzyme activities were measured in the presence of a compound of the EXAMPLES as a test inhibitor in a fluorescence assay against a commercially available substrate consisting of a cephalosporin core linking 7-hydroxycoumarin to fluorescein (CCF2-FA; Life Technologies, Grand Island, N.Y.). The enzyme (NDM-1, IMP-1 or VIM-1) and the substrate were diluted in 100 mM KH2PO4 buffer (pH 7) containing 0.005% Tween-20 and 10 μM ZnSO4. In the assay, the final concentration of enzyme was 1 pM, 2 pM and 30 pM for NDM-1, IMP-1 and VIM-1, respectively, and the final concentration of CCF2-FA was 1.25 μM. The test inhibitor was dissolved in DMSO and diluted 1:50 in the assay, resulting in a final concentration range of 20 μM to 0.00063 μM. In a 384-well microplate, the test inhibitor was incubated with the metallo-β-lactamase enzyme and the substrate for 2 hours at 25° C. Fluorescence at 460 nm following excitation at 405 nm was measured. The IC50 value was determined from semi-logarithmic plots of enzyme inhibition versus inhibitor concentration, with a curve generated using a 4-parameter fit.

NDM-1 = NDM-1 (Klebsiella pneumoniae, UniProt C7C422); assay: as above; format: biochemical; details: enzyme 1 pM, CCF2-FA 1.25 μM, 2 hours at 25° C.; read-out: NDM1 IC50
Method: as §1, §2

VIM-1 = VIM-1 (Pseudomonas aeruginosa, UniProt A0A0F7KYQ8); assay: as above; format: biochemical; details: enzyme 30 pM, CCF2-FA 1.25 μM, 2 hours at 25° C.; read-out: VIM1 IC50
Method: as §1, §2

[1] = test system: Escherichia coli expressing NDM-1 (CLB30016); assay: Antibiotic potentiation activity: synergistic concentration (MITC95) with imipenem, growth by OD600; format: cell-based; details: 95% inhibition of bacterial growth, strain CLB30016
Method: (§3) Antibiotic Potentiation Activity: Determination of Synergistic Concentration
(§4) The bacterial strains tested included the clinical strains Escherichia coli expressing NDM-1 (CLB30005, CLB30016), Serratia marcescens expressing IMP-1 (CL5741), and Klebsiella pneumoniae expressing VIM-1 (IHMA599644). Inhibitor activity was measured in the presence and absence of imipenem or ceftazidime in a 384-well microplate.
(§5) The clinical strains CLB30016, CL5741, and IHMA599644 were grown on trypticase soy agar containing 5% sheep's blood. The clinical strain CLB30005 was grown on Mueller Hinton broth agar containing 8 μg/ml imipenem. The bacteria on agar plates were incubated overnight at 35° C. with ambient humidity (achieved from an open pan of water inside the incubator). The following day, individual colonies from each clinical strain were picked and resuspended in 5 ml saline to attain an OD600 of 0.14, 0.11, 0.15 and 0.13, for CLB30005, CLB30016, CL5741 and IHMA599644, respectively. These were further diluted 1:100 into 1.1×CAMHB and used to inoculate the test wells as described below.
(§6) Imipenem in 10 mM 3-(N-morpholino)propanesulfonic acid (MOPS, pH 7) was stored in single use aliquots at −80° C. Test inhibitors were dissolved in DMSO and diluted 1:50 in the assay, resulting in a final concentration range of 200 μM to 0.195 μM. On the day of the assay, 4 μl of antibiotic was added to 45 μl of bacteria followed by 1 μl of test compound and mixed by pipetting and with an orbital shaker. The concentration of antibiotic used in the assay was 1 μg/ml or 4 μg/ml. Microplates were covered and incubated at 35° C. for 22 hours to 24 hours. At the end of the incubation, absorbance was determined using a spectrophotometer. The synergistic concentration of MBLI was determined by identifying the lowest concentration of test compound in the presence of a given concentration of antibiotic that was required to inhibit 95% of the growth of the bacteria.
(§7) Representative compounds of the present invention display a synergistic effect. For example, representative compounds of EXAMPLES 1-456 were determined to restore susceptibility to imipenem at concentrations of 200 μM or less.

[2] = test system: Klebsiella pneumoniae expressing VIM-1 (IHMA599644); assay: as above; format: cell-based; details: 95% inhibition of bacterial growth, strain IHMA599644
Method: as §3, §4, §5, §6, §7

[3] = test system: Serratia marcescens expressing IMP-1 (CL5741); assay: as above; format: cell-based; details: 95% inhibition of bacterial growth, strain CL5741
Method: as §3, §4, §5, §6, §7

NDM-1, sequence (C7C422 29-270, looked up, species assumed): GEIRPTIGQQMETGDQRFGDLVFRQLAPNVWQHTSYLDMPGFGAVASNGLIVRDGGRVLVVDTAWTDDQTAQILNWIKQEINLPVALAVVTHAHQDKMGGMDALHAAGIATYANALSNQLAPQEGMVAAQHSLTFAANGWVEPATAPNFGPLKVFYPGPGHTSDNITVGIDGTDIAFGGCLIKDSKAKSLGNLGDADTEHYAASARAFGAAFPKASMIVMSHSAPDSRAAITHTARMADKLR
IMP-1, sequence (P52699 19-246, looked up, species assumed): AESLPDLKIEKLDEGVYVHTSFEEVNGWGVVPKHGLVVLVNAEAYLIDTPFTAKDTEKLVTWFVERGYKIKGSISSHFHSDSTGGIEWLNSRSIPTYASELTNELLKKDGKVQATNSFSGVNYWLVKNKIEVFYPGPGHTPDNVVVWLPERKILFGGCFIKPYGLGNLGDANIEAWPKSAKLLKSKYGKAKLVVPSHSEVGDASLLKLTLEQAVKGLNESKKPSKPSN

Structure (SMILES) | IC50 (IMP-1) [nM] | IC50 (NDM-1) [nM] | IC50 (VIM-1) [nM] | NDM1 EC30016 MITC95 [1] [µM] | VIM1 KP599644 MITC95 [2] [µM] | IMP1 SM5741 MITC95 [3] [µM]
CC(C)[C@H](C(=O)O)[C@H](Cc1ccc(-c2cn[nH]c2)cc1)c1nnn[nH]1 [Example 62, (2S,3S)-4-(4-(1H-pyrazol-4-yl)phenyl)-2-isopropyl-3-(1H-tetrazol-5-yl)butanoic acid] | 66 | 6.5 | 6.9 | 9.4 | 18.8 | 6.2
O=C(O)[C@@H](C1CCCC1)[C@H](Cc1ccc(-c2cn[nH]c2)cc1)c1nnn[nH]1 [Example 63, (2S,3S)-4-(4-(1H-pyrazol-4-yl)phenyl)-2-cyclopentyl-3-(1H-tetrazol-5-yl)butanoic acid] | 25 | 4.5 | 1.1 | 6.2 | 18.8 | 2.0
CC(C)[C@H](C(=O)O)[C@H](Cc1ccc(C2=CCNC2)nc1)c1nnn[nH]1 [Example 64, (2S,3S)-4-(6-(2,5-dihydro-1H-pyrrol-3-yl)pyridin-3-yl)-2-isopropyl-3-(1H-tetrazol-5-yl)butanoic acid] | 12000 | 300 | 8.4 | 6.2 | 12.5 | 50
CC(C)[C@H](C(=O)O)[C@H](Cc1ccc(C2=CCNC2)cn1)c1nnn[nH]1 [Example 65, (2S,3S)-4-(5-(2,5-dihydro-1H-pyrrol-3-yl)pyridin-2-yl)-2-isopropyl-3-(1H-tetrazol-5-yl)butanoic acid] | > 20000 | 760 | 72 | 3.1 | 12.5 | 200
O=C(O)[C@@H](C1CCCC1)[C@H](Cc1ccc(C2=CCNC2)cn1)c1nnn[nH]1 [Example 66, (2S,3S)-2-cyclopentyl-4-(5-(2,5-dihydro-1H-pyrrol-3-yl)pyridin-2-yl)-3-(1H-tetrazol-5-yl)butanoic acid] | 6400 | 370 | 18 | 4.7 | 12.5 | 75
O=C(O)[C@@H](C1CCOC1)[C@H](Cc1ccc(C2=CCNC2)cc1)c1nnn[nH]1 (stereo partly drawn) [Example 67, (2R,3S)-4-(4-(2,5-dihydro-1H-pyrrol-3-yl)phenyl)-2-(tetrahydrofuran-3-yl)-3-(1H-tetrazol-5-yl)butanoic acid] | 12000 | 890 | 25 | 12.5 | 25 | 50
Cc1cc(C[C@H](c2nnn[nH]2)[C@@H](C(=O)O)C(C)C)ccc1C1=CCNC1 [Example 68, (2S,3S)-4-(4-(2,5-dihydro-1H-pyrrol-3-yl)-3-methylphenyl)-2-isopropyl-3-(1H-tetrazol-5-yl)butanoic acid] | 1100 | 24 | 0.79 | 4.7 | 6.2 | 12.5
CC(C)[C@H](C(=O)O)[C@H](Cc1ccc(C2=CCNC2)c(F)c1)c1nnn[nH]1 [Example 69, (2S,3S)-4-(4-(2,5-dihydro-1H-pyrrol-3-yl)-3-fluorophenyl)-2-isopropyl-3-(1H-tetrazol-5-yl)butanoic acid] | 770 | 25 | 1.3 | 3.1 | 6.2 | 6.2
CC(C)[C@H](C(=O)O)[C@H](Cc1ccccc1C1=CCNC1)c1nnn[nH]1 [Example 70, (2S,3S)-4-(2-(2,5-dihydro-1H-pyrrol-3-yl)phenyl)-2-isopropyl-3-(1H-tetrazol-5-yl)butanoic acid] | > 20000 | 180 | 240 | 12.5 | 50 | >200
Nc1ccc(-c2ccc(C[C@H](c3nnn[nH]3)[C@@H](C(=O)O)C3CCCC3)cc2)cn1 [Example 72, (2S,3S)-4-(4-(6-aminopyridin-3-yl)phenyl)-2-cyclopentyl-3-(1H-tetrazol-5-yl)butanoic acid] | 19 | 5.6 | 3.8 | 6.2 | 12.5 | 0.39
CC(C)[C@H](C(=O)O)[C@H](Cc1ccc(-c2ccc(N)nc2)cc1)c1nnn[nH]1 [Example 73, (2S,3S)-4-(4-(6-aminopyridin-3-yl)phenyl)-2-isopropyl-3-(1H-tetrazol-5-yl)butanoic acid] | 40 | 4.4 | 7.1 | 18.8 | 37.5 | 1.2
CC(C)[C@H](C(=O)O)[C@H](Cc1ccc(-c2ccc(CN)cc2)cc1)c1nnn[nH]1 [Example 74, (2S,3S)-4-(4′-(aminomethyl)-[1,1′-biphenyl]-4-yl)-2-isopropyl-3-(1H-tetrazol-5-yl)butanoic acid] | 110 | 34 | 18 | 3.1 | 12.5 | 1.6
NCc1ccc(-c2ccc(C[C@H](c3nnn[nH]3)[C@@H](C(=O)O)C3CCCC3)cc2)cc1 [Example 75, (2S,3S)-4-(4′-(aminomethyl)-[1,1′-biphenyl]-4-yl)-2-cyclopentyl-3-(1H-tetrazol-5-yl)butanoic acid] | 36 | 25 | 4.3 | 3.1 | 9.4 | 0.78
CC(C)[C@H](C(=O)O)[C@H](Cc1ccc(-c2ccc3c(c2)CNC3)nc1)c1nnn[nH]1 [Example 76, (2S,3S)-4-(6-(isoindolin-5-yl)pyridin-3-yl)-2-isopropyl-3-(1H-tetrazol-5-yl)butanoic acid] | 2600 | 120 | 18 | 9.4 | 18.8 | 37.5
CC(C)[C@H](C(=O)O)[C@H](Cc1ccc(-c2cnc(NCCO)nc2)cc1)c1nnn[nH]1 [Example 77, (2S,3S)-4-(4-(2-((2-hydroxyethyl)amino)pyrimidin-5-yl)phenyl)-2-isopropyl-3-(1H-tetrazol-5-yl)butanoic acid] | 99 | 6.1 | 5.7 | 6.2 | 50 | 4.7
CC(C)[C@H](C(=O)O)[C@H](Cc1ccc(C2CCNC2)cc1)c1nnn[nH]1 (stereo partly drawn) [Example 78, (2S,3S)-2-isopropyl-4-(4-(pyrrolidin-3-yl)phenyl)-3-(1H-tetrazol-5-yl)butanoic acid] | 460 | 23 | 4.5 | 3.1 | 6.2 | 6.2
